Results as given in patent US11433033B2, “2,4-dinitrophenol formulations and methods using same” (priority 2013, dated 2022).
“Also recorded” adds a separate entry of the source. Like-named read-outs stand apart in the source and are kept apart here.

Tests used:
high fat fed rats = test: Hepatic fluxes (VTCA, VPC, Vfa, VPDH) by [3-13C] lactate infusion, NMR-LC/MS/MS; conditions: rat, in vivo
Description: To measure total glutamate enrichment from livers of rats infused with [3-^13C] lactate, ˜100 mg frozen liver were homogenized in 400 μL ice-cold 50% acetonitrile. The samples were centrifuged at 10,000 g for 10 min, and the supernatant was isolated. After overnight storage at 4° C., the samples were centrifuged at 10,000 g for 10 min through a Nanosep 100 k Omega filter (Pall Life Sciences). The flow-through was separated on a hypercarb column (Thermo Scientific; 4.6×100 mm; 5 μm particle size) before ionization for multiple reaction monitoring analysis by LC/MS/MS (Applied Biosystems MDS SCIEX, 4000 Q-TRAP). […]
Spectra were acquired with relaxation time=1 s, dummy scans=32, and number of scans=8,192 per block×3 blocks. Correction factors for differences in T relaxation times were determined from fully relaxed spectra of natural abundance glutamate and glucose solutions. […]
Total glucose enrichment in the NMR extract was determined by derivatizing 20 μL of the NMR extract with 100 μL methanol, then drying overnight in a Speed-Vac. […]
To measure positional alanine enrichment from [3-^13C] lactate infused rat livers, liver samples were extracted for NMR as described above, and the enrichment at [2-^13C] and [3-^13C] alanine was measured by proton-observed, carbon-edited NMR as we have reported (Alves et al., 2011, Hepatology 53:1175-1181). […]

[1] = tested on: rat model of NAFLD and whole body insulin resistance; test: Continuous low dose intragastric DNP infusion (2 mg/kg per day, 5 days) in high fat fed rats; format: in vivo
Description: For the intragastric DNP infusion studies, rats previously fed high fat diet for 2 weeks were placed in a Covance infusion harness attached to a single-axis counter-balanced swivel mount and a stainless steel one-channel swivel (all from Instech Solomon) to protect the catheters and allow the animals free access to the cage. DNP (2 mg/kg per day) or vehicle (10% dimethylsulfoxide/90% saline vehicle) was infused continuously through the […] for 5 days.
Plasma insulin and glucagon were measured by radioimmunoassay. Plasma glucose was measured enzymatically by the YSI Life Sciences 2700 Select Biochemistry Analyzer. Plasma concentrations of twelve inflammatory markers, adiponectin, and FGF-21 were assessed by ELISA (QIAGEN, Life Technologies, and Millipore, respectively). Liver glycogen was measured by amyloglucosidase digestion (Passonneau & Lauderdale, 1974, Anal. Biochem. 60:405-12). Non-esterified fatty acid concentrations were measured by an enzymatic kit (Wako).
(§1) Plasma triglycerides were measured using a Wako reagent. Liver and quadriceps triacylglycerol were extracted using the method of Bligh and Dyer (Bligh & Dyer, 1959, Can. J. Biochem. Physiol. 37:911-7) and quantified spectrophotometrically using a reagent from Diagnostic Chemicals Ltd. Liver and quadriceps DAG and ceramide concentrations were measured by liquid chromatography/mass spectrometry/mass spectrometry (LC/MS/MS) (Yu, et al., 2002, J. Biol. Chem. 277:50230-6), as were acylcarnitine concentrations (An, et al., 2004, Nat. Med. 10:268-74). Very low-density lipoprotein (VLDL) export was measured (Lee, et al., 2011, Hepatology 54:1650-60). Liver acetyl and malonyl CoA concentrations were measured by LC/MS/MS (Hosokawa, et al., 1986, Anal. Biochem. 153:45-9; Roughan, 1994, Biochem. J. 300:355-8).

in vivo [2] = format: in vivo, Sprague-Dawley rats
Description: Rats consumed the concentrations of DNP or ERDNP specified in the text orally, mixed in peanut butter. All rats used for the kinetics studies consumed the entirety of the peanut butter and protonophore within 2 minutes.
DNP concentrations were measured in plasma, liver, kidney, WAT, quadriceps, heart, and brain of Sprague-Dawley rats by LC/MS/MS (Perry, et al., 2013, Cell. Metab. 18:740-8). Rats treated with DNP were sacrificed 1 hour after treatment with DNP, and those treated with ERDNP were sacrificed 8 hours after treatment, as these were the times determined in the plasma DNP studies to represent the peak plasma DNP concentrations (FIGS. 21A-21B). The minimal detection limit of the method was determined to be […], as this was the minimum concentration of solutions of known quantities of DNP in DMSO measured by the method with less than 20% error in each of three replicates.
LC/MS/MS method development and analysis were performed on the Applied Biosystems 4000 QTRAP (Foster City, Calif.), equipped with a Shimadzu ultra fast liquid chromatography (UFLC) system. Electrospray ionization (ESI) source with negative-ion detection was shown as the most sensitive for both qualitative and quantitative analysis of DNP. The quantitative analysis of DNP was monitored in MRM mode with an ion pair (183.0/109.0). The preferred parameters are: curtain gas 25; collision gas 9, probe temperature 480° C.; […]; ion source gas 2 25; declustering potential (DP) −45 V; entrance potential (EP) −10 V; collision energy (CE) −35 V and collision cell exit potential −12 V.
Plasma samples (10-100 μL) were mixed with 2.0 ml pre-chilled chloroform/methanol (v/v: 2/1) containing 0.01% BHT in 5 ml glass vials, to which was added 250 μl water together with 10 nmol DNP-D3 and 10 nmol DNPME-D6 as the internal standards. The mixtures were vortexed for 10 seconds before centrifugation at 4000 rpm for 10 min. The bottom organic layer was carefully collected and dried with a steady stream of nitrogen gas. The residual was reconstituted in 200 μl methanol for LC/MS/MS analysis for DNP and/or DNPME metabolites.
Frozen tissue samples (˜100 mg) were weighed and suspended in 2 ml microcentrifuge tubes with 1.6 ml pre-chilled chloroform/methanol (v/v: 2/1) containing 0.01% BHT and one metal bead, and then added 10 nmol DNP-d3 (Cambridge Isotopes, Andover, Mass.) as the internal standards. The tissue samples were disrupted with Qiagen TissueLyser at 30 Hz for 15 min, and then transferred into 5 ml glass vials, followed by addition of 0.5 ml chloroform and 250 μl water into each samples. The samples were centrifuged at 4000 rpm for 10 min after vortexed for 10 seconds. The bottom organic layer was collected and dried with a gentle flow of nitrogen. The residual was reconstituted in 200 μl methanol for LC/MS/MS analysis of DNP.

[3] = tested on: two-week high fat fed rats; format: in vivo, rat
Description: ERDNP was formulated by Emerson Resources Inc. (Malvern, Pa.) with sustained-release ethylcellulose coating. Rats used for the NAFLD reversal studies were fed high fat diet for 2 weeks, at the end of which they were treated for three days with peanut butter to acclimate them to this food. They were then treated daily with ERDNP mixed in peanut butter, or peanut butter vehicle, at the doses specified in the text daily for 5 days. Zucker Diabetic Fatty rats were treated with ERDNP (1 mg/kg) in peanut butter or peanut butter vehicle daily for 14 days. Blood glucose was measured by glucometer (Abbott) from the tail vein every three days.
(§2) Alanine aminotransferase, aspartate aminotransferase, and blood urea nitrogen were measured using the COBAS Mira Plus, and creatinine by LC/MS/MS. Body temperature was measured using a rectal probe (Physitemp Instruments). Histology slides were stained with hematoxylin & eosin, Sirius Red, and TUNEL stains.
as §1

in vivo [4] = format: in vivo, Sprague-Dawley rats; conditions: for concentration at 5 days: Sprague-Dawley, rat, in vivo, 2 mg/kg per day
rats = test: Toxicity studies: rectal temperature, liver enzymes, BUN, creatinine, histology; format: in vivo, rat
Description: as §2
Liver and kidney samples were prepared and stained with hematoxylin & eosin by the Yale Research Histology core, and analyzed as described (Kleiner et al., 2005, Hepatology 41:1313-1321).

[5] = intragastric DNP 2 mg/kg per day, 5 days

For `O=[N+]([O-])c1ccc(O)c([N+](=O)[O-])c1` [DNP, 2,4-dinitrophenol], the “concentrations of DNP found to promote subtle increases in hepatic mitochondrial uncoupling” value (high fat fed rats) was 1 to 5 µM, the “liver enzymes, blood urea nitrogen (BUN) or creatinine” value ([1]; chronic intragastric DNP infusion 2 mg/kg per day) was “no observed changes” and the “fasting plasma glucose and insulin concentrations” value [1, 5] was “lower”. For the same compound, the “reductions in liver and muscle TAG and diacylglycerol (DAG) content” value [1, 5] was > 50%, the “reductions in plasma triglycerides” value [1, 5] was > 80% and the tissue ceramide content [1, 5] was “no changes”. The “tissue DNP concentrations after chronic treatment compared with one (or five) daily doses” value (in vivo [2]; 1 mg/kg per day, rats) was “no differences; also recorded: did not differ significantly”, the “maximum plasma concentration of DNP, fold higher with DNP treatment than with ERDNP” value (in vivo [2]; 25 mg/kg DNP versus 1 mg/kg ERDNP) was 30 fold and the concentration at 8 hours (in vivo [2]; Sprague-Dawley, rat, in vivo, 1 mg/kg, 8 hours after the last of five daily 1 mg/kg doses (FIG. 21J), read-out: DNP concentrations in all tissues following chronic treatment) was < 10000 nM. For the same compound, the half-life (in vivo [2]; Sprague-Dawley, rat, in vivo, 25 mg/kg, plasma DNP, rats) was 8 to 12 h, the “peak DNP liver concentration” value (in vivo [2]; dose of DNP 5 mg/kg, rat) was ~60 µM and the “peak plasma DNP concentration” value (in vivo [2]; dose of DNP 5 mg/kg, rat) was ~120 µM. For the same compound, the “area under the plasma DNP concentration curve” value (in vivo [2]; oral, rats, 1 mg/kg ERDNP versus 25 mg/kg DNP) was 4,311±555, the “time of maximum concentration of DNP” value (in vivo [2]; plasma, rats, 1 mg/kg ERDNP versus 25 mg/kg DNP) was “one” and the “daily doses that raised ALT” value ([3]; daily for five days) was “above 2 mg/kg”. For the same compound, the “daily doses that raised AST concentrations” value ([3]; daily for five days) was “above 1 mg/kg”, the “effect of the highest dose on BUN” value ([3]; daily for five days) was “raised BUN” and the “lowest effective dose to decrease liver triglyceride” value ([3]; daily for five days, two-week high fat fed rats) was 5 mg/kg. For the same compound, the “ratio of toxic to therapeutic dose” value ([3]; rats) was 0.4, the toxic dose ([3]; rats) was 2 mg/kg and the concentration at 5 days (in vivo [4]; intragastric DNP infusion 2 mg/kg per day, 5 days, rats, read-out: steady state liver DNP concentration) was ~1000 nM. The concentration at 5 days (in vivo [4]; intragastric DNP infusion 2 mg/kg per day, 5 days, rats, read-out: steady state plasma DNP concentration) was ~3000 nM, the “sustained plasma and tissue concentrations of DNP that reversed hepatic steatosis and insulin resistance” value (in vivo [4]; continuous intragastric DNP infusion, rat model of NAFLD) was 1-3 VM and the “plasma DNP concentrations, fold lower than the threshold where DNP toxicity is first detected” value (in vivo [4]; continuous low dose intragastric infusion of DNP) was ~100 fold. For the same compound, the “sustained plasma and liver concentrations of DNP that reversed fatty liver and whole body insulin resistance” value (in vivo [4]; continuous low dose intragastric infusion, high fat rat model of NAFLD) was 1 to 3 µM, the “DNP concentration in skeletal muscle” value (in vivo [4]; intragastric DNP infusion 2 mg/kg per day, 5 days, rats) was “negligible” and the “toxic plasma threshold of DNP” value (rats; plasma concentration) was ~400 µM. The “relation between plasma DNP concentration and body temperature” value (rats; rats treated with 10-50 mg/kg DNP) was “strong correlation”.
